Tests used:
Assay type in all cases: in vivo
[1] = test system: spring wheat (cv. Passat); experiment: Spring wheat pot trial, optimal water supply (Example 1)
Description: Mitcherlich pots of known weight were filled with 5.5 kg of sandy dry soil (pH 6.8) and fertilized (P, K and Mg) to optimal growing conditions. The culture was spring wheat (cv. Passat); 12 plants per pot. The experiment was conducted with 6 replications in a vegetation hall. Experiments were carried out under semi controlled conditions at very low disease-pressure with insignificant infection rates, protected from any undesired rain or water impact. The water consumption of each pot was calculated on the basis of the recorded measurements of the weight of the pots prior to each irrigation event up to the defined set point.
(§1) Nitrogen fertilizer (totally 1.75 g N/pot) was added in equal amounts at 3 stages to allow optimal growth conditions throughout the life cycle. All plants/pots were grown at optimal water supply by watering 2-3 times a day to 60% of the water holding capacity of the soil.
Compound Ia (62.5 g/L, 2 L in 400 L water/ha) was applied at growth stage 39/49 (BBCH scale), which is an EC formulation of compound Ia. Control plants were not treated.
Plant Height, as an indicator of plant vigor, was measured after heading. At maturity of the plants the grain, as an indicator of yield, was harvested and uniformly dried to 5% moisture content. Straw yield, as an another indicator of plant yield, was also determined and the number of halms with ear per pot was counted at maturity. Number of grains per pot was counted after harvest. Thousand Grain Weight (TGW), as yet another indicator of plant yield, was calculated based on grain yield per pot and number of grains per pot.

[2] = test system: spring wheat (cv. Passat); experiment: Spring wheat pot trial, severe drought stress (Example 2)
Description: (§2) Spring wheat (cv. Passat) was cultivated in Mitcherlich pots as described above in example 1. The experiment was conducted with 6 replications in a vegetation hall. Experiments were carried out under semi controlled conditions at very low disease-pressure with insignificant infection rates, protected from any undesired rain or water impact. The water consumption of each pot was calculated on the basis of the recorded measurements of the weight of the pots prior to each irrigation event up to the defined set point.
as §1, with “soil until growth stage 55 (BBCH). Then, pots were only watered to 60% of the maximum water holding capacity of the soil after clear water stress symptoms on the plants were visible to apply severe drought stress.” for “soil.”
Compound Ia (62.5 g/l, 2 L in 400 L water/ha) was applied at growth stage 39/49 (BBCH scale), which is an EC formulation of compound Ia. Control plants were not treated.
After ripening of the plants, the grain was harvested and uniformly dried to 5% moisture content. Grain yield per pot, grain yield per ear, number of grains per ear and number of grains per pot were determined as indicators of plant vigor and plant yield. The relation of grain yield to straw added to the grain yield was used to calculate the harvest index.

[3] = test system: spring wheat (cv. Passat); experiment: Spring wheat pot trial, moderate drought stress (Example 3)
Description: as §2, with “point. Pots without crop coverage were used to estimate the evaporation of the soil.” for “point.”
Nitrogen fertilizer (totally 1.75 g N/pot) was added in equal amounts at 3 stages to allow optimal growth conditions throughout the life cycle. All plants/pots were grown at optimal water supply by watering 2-3 times a day to 60% of the water holding capacity of the soil until growth stage 55 (BBCH). Then, pots were only watered to 30% of the maximum water holding capacity of the soil to apply moderate drought stress. Compound Ia (62.5 g/l, 2 L in 400 L water/ha) was applied at growth stage 39/49 (BBCH scale), which is an EC formulation of comound Ia. Control plants were not treated.
At maturity of the plants the grain was harvested and uniformly dried to 5% moisture content. Number of grains per pot was counted after harvest. Thousand Grain Weight (TGW), as an indicator of plant yield, was calculated based on grain yield per pot and number of grains per pot. Transpiration was calculated on the basis of the amount of water added to the respective pots and the estimated soil evaporation. Water use efficiency, as an indicator of drought stress tolerance of a plant, was calculated based on the respective transpiration per pot.

Maize (Dekalb RX940) = experiment: Maize field trial, Dinuba 2008 (Example 5)
Description: Maize was grown in 2008 in a field trial at the BASF experimental station in Dinuba, 10181 Avenue 416, Calif., U.S.A. The variety Dekalb RX940 was planted at a seeding rate of 10 plants/m^2. Four rows per plot were planted with a row spacing of 0.75 m. The trial was setup as a randomized bloc design with 5 replications, each. Plot size was 43 m^2. Compound Ia was used as an EC formulation (62.5 g a.i./L) with a dose rate of 0.8 L per hectar (50 g a.i./ha). The formulation was applied in a total spray volume of 400 L/ha. Compound Ia was sprayed at a growth stage 51/55 (BBCH) with a tractor mounted spray boom with VS11003 spray nozzles at 3 bar spray pressure.
No disease symptoms were visible at the application time and no symptoms were detected at later stages.
Green leaf area, as an indicator of plant vigor, was assessed beginning of ripening by estimating the green leaf area in 10 randomly chosen plants per plot.
At maturity the grain was harvested and the grain yield per plot, as an indicator of plant yield, was determined (kg/plot). Finally, the grain yield per hectare, as an aditional indicator of plant yield, was calculated (dt/ha). Furthermore, the Thousand Grain Weight (TGW) was determined in the second trial (Crow C300 42).

[4] = severe drought stress from BBCH 55, 2 L/ha EC at BBCH 39/49
[5] = moderate drought stress, 2 L/ha EC at BBCH 39/49

Question: Which results are given for `Cn1cc(C(=O)Nc2ccccc2-c2cc(F)c(F)c(F)c2)c(C(F)F)n1` [Compound Ia, N-(3′,4′,5′-trifluorobiphenyl-2-yl)-3-difluoromethyl-1-methyl-1H-pyrazole-4-carboxamide]?
Answer: Grain yield/pot, change vs untreated control ([1]; 2 L/ha EC at BBCH 39/49): (+6%); Number of halms with ear/pot, change vs untreated control ([1]; 2 L/ha EC at BBCH 39/49): (+16%); Plant height, change vs untreated control ([1]; 2 L/ha EC at BBCH 39/49): (+2%); Straw yield ([1]; 2 L/ha EC at BBCH 39/49): 70.0 g/pot; Straw yield, change vs untreated control ([1]; 2 L/ha EC at BBCH 39/49): (+6%); TGW (Thousand Grain Weight) ([1]; 2 L/ha EC at BBCH 39/49): 32.0 g; TGW, change vs untreated control ([1]; 2 L/ha EC at BBCH 39/49): (+2%); Number of halms with ear/pot ([1]; 2 L/ha EC at BBCH 39/49, at maturity): 37.5; Grain yield/pot ([1]; 2 L/ha EC at BBCH 39/49, grain dried to 5% moisture): 74.2 g/pot; Plant height ([1]; EC 62.5 g/L, 2 L in 400 L water/ha at BBCH 39/49, measured after heading): 76.2 cm; Harvest index, change vs untreated control ([2]; severe drought stress): (+3%); Number of grains per ear, change vs untreated control ([2]; severe drought stress): (+3%); Single ear grain yield, change vs untreated control ([2]; severe drought stress): (+3%); Harvest index (grain yield g/grain + straw yield g) [2, 4]: 0.42; Number of grains per ear [2, 4]: 49.9; Single ear grain yield [2, 4]: 1.31 g/ear; Thousand Grain Weight, change vs untreated control ([3]; moderate drought stress): (+4%); Transpiration, change vs untreated control ([3]; moderate drought stress): (−4%); Water use efficiency, change vs untreated control ([3]; moderate drought stress): (+3%); Transpiration ([3]; moderate drought stress (30% water holding capacity from BBCH 55), 2 L/ha EC at BBCH 39/49): 26.5 L water/pot; Thousand Grain Weight [3, 5]: 31.2 g; Water use efficiency [3, 5]: 2.02 g grain/L water; Grain yield, increase as % of untreated (Maize (Dekalb RX940); 50 g a.i./ha): (+4.5%); TGW, increase as % of untreated (Maize (Dekalb RX940); 50 g a.i./ha): (+3.3%); Grain yield (Maize (Dekalb RX940); 50 g a.i./ha at BBCH 51/55): 154.7 dt/ha; TGW (Maize (Dekalb RX940); 50 g a.i./ha at BBCH 51/55): 317.0 g; % Green leaf area (Maize (Dekalb RX940); 50 g a.i./ha at BBCH 51/55, beginning of ripening): 49.0%; Grain yield, increase as % of untreated (Maize (Dekalb RX940); 50 g a.i./ha, listed as compound Ia): 4.5%

Reference: patent publication US20110263423A1, “Plant Health Composition” (BASF SE, priority 2008, published 2011)
